Experimental data published in publication PMC5372246, “Co-production of hydrogen and ethanol from glucose in Escherichia coli by activation of pentose-phosphate pathway through deletion of phosphoglucose isomerase (pgi) and overexpression of glucose-6-phosphate dehydrogenase (zwf) and 6-phosphogluconate dehydrogenase (gnd)” (Biotechnology for Biofuels, 2017).

What was measured:
[1] = target: T1, Zwf (ZE), glucose-6-phosphate dehydrogenase (Escherichia coli, UniProt P0AC53); test: inhibition of purified enzyme, NADPH formation at […] nm; format: biochemical
T1 construct: full-length, C-terminal His-tag, Ni-NTA purified from E. coli, 55 kDa on SDS-PAGE
T1 sequence (P0AC53 whole entry): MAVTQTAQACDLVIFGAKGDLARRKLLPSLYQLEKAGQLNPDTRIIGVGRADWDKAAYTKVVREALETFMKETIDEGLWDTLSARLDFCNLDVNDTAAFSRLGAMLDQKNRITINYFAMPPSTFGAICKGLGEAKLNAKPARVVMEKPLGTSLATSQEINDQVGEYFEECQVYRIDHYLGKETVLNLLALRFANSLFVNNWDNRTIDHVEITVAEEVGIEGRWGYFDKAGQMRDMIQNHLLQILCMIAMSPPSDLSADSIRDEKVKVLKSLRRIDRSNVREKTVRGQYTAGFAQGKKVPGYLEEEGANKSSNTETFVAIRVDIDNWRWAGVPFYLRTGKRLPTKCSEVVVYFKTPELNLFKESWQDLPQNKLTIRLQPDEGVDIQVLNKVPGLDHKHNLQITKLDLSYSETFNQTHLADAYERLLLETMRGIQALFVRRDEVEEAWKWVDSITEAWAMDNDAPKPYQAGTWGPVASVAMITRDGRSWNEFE

[2] = target: T2, Gnd (GE), 6-phosphogluconate dehydrogenase (Escherichia coli, UniProt P00350); test: as above; format: biochemical
T2 construct: full-length, C-terminal His-tag, Ni-NTA purified from E. coli, 51 kDa on SDS-PAGE
T2 sequence (P00350 1-468): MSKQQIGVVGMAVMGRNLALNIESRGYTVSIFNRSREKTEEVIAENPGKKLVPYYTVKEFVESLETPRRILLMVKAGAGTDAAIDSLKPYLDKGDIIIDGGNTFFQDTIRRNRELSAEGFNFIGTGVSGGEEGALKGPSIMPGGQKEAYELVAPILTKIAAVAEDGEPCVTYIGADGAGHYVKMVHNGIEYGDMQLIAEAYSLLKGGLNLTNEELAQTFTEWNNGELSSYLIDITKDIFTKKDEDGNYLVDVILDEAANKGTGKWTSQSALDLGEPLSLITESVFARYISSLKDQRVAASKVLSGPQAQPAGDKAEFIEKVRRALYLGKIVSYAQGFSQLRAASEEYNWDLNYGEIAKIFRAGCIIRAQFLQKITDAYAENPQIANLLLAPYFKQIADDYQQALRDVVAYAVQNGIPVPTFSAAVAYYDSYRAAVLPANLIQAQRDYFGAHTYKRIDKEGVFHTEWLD

Ki [1]: ~40 µM | Ki [2]: ~40 µM
Compound: NC(=O)C1=CN([C@@H]2O[C@H](COP(=O)(O)OP(=O)(O)OC[C@H]3O[C@@H](n4cnc5c(N)ncnc54)[C@H](OP(=O)(O)O)[C@@H]3O)[C@@H](O)[C@H]2O)C=CC1 [NADPH]
